Laboratory results reported in PubChem BioAssay (NCI).
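Cells were grown in 96-well plates and exposed to each compound for 48 hours at five concentrations; endpoints were interpolated linearly between bracketing concentrations, or set to the highest concentration if not reached. Definition used: TGI = concentration required for complete inhibition of growth.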

Tests used:
Experiment in all cases: NCI tumour cell line growth inhibition, 48 h
U251 CNS = test system: U251 CNS
SF-295 CNS = test system: SF-295 CNS
M14 melanoma = test system: M14 melanoma
HT29 colon = test system: HT29 colon
786-0 renal = test system: 786-0 renal
MALME-3M melanoma = test system: MALME-3M melanoma
TK-10 renal = test system: TK-10 renal
OVCAR-5 ovarian = test system: OVCAR-5 ovarian
PC-3 prostate = test system: PC-3 prostate
HCT-116 colon = test system: HCT-116 colon
HS 578T breast = test system: HS 578T breast
A498 renal = test system: A498 renal
SK-MEL-2 melanoma = test system: SK-MEL-2 melanoma
COLO 205 colon = test system: COLO 205 colon
EKVX NSCLC = test system: EKVX NSCLC
NCI-H522 lung = test system: NCI-H522 lung
RXF 393 renal = test system: RXF 393 renal
HOP-92 NSCLC = test system: HOP-92 NSCLC
SK-MEL-5 melanoma = test system: SK-MEL-5 melanoma
MCF7 breast = test system: MCF7 breast
SF-268 CNS = test system: SF-268 CNS
MOLT-4 leukemia = test system: MOLT-4 leukemia
KM12 colon = test system: KM12 colon
SK-OV-3 ovarian = test system: SK-OV-3 ovarian
NCI-H460 lung = test system: NCI-H460 lung
SNB-19 CNS = test system: SNB-19 CNS
CCRF-CEM leukemia = test system: CCRF-CEM leukemia
OVCAR-3 ovarian = test system: OVCAR-3 ovarian
NCI-H226 lung = test system: NCI-H226 lung
HOP-62 NSCLC = test system: HOP-62 NSCLC
SNB-75 CNS = test system: SNB-75 CNS
HCT-15 colon = test system: HCT-15 colon
HCC-2998 colon = test system: HCC-2998 colon
SK-MEL-28 melanoma = test system: SK-MEL-28 melanoma
ACHN renal = test system: ACHN renal
BT-549 breast = test system: BT-549 breast
OVCAR-4 ovarian = test system: OVCAR-4 ovarian
T-47D breast = test system: T-47D breast
SN12C renal = test system: SN12C renal
RPMI-8226 leukemia = test system: RPMI-8226 leukemia
MDA-MB-435 = test system: MDA-MB-435
UO-31 renal = test system: UO-31 renal
IGROV1 ovarian = test system: IGROV1 ovarian
HL-60(TB) leukemia = test system: HL-60(TB) leukemia
A549 NSCLC = test system: A549 NSCLC
MDA-MB-231 breast = test system: MDA-MB-231 breast
MDA-N = test system: MDA-N
OVCAR-8 ovarian = test system: OVCAR-8 ovarian
SW-620 colon = test system: SW-620 colon
UACC-62 melanoma = test system: UACC-62 melanoma
LOX IMVI melanoma = test system: LOX IMVI melanoma
DU-145 prostate = test system: DU-145 prostate
NCI/ADR-RES ovarian = test system: NCI/ADR-RES ovarian
CAKI-1 renal = test system: CAKI-1 renal
NCI-H23 lung = test system: NCI-H23 lung
SR leukemia = test system: SR leukemia
K-562 leukemia = test system: K-562 leukemia
UACC-257 melanoma = test system: UACC-257 melanoma
SF-539 CNS = test system: SF-539 CNS
DMS 114 small cell lung = test system: DMS 114 small cell lung
LXFL 529 NSCLC = test system: LXFL 529 NSCLC
SNB-78 CNS = test system: SNB-78 CNS
KM20L2 colon = test system: KM20L2 colon
DMS 273 small cell lung = test system: DMS 273 small cell lung
M19-MEL melanoma = test system: M19-MEL melanoma
DLD-1 colon = test system: DLD-1 colon

Cc1ccc2c(c1)Sc1ccc(N=NN(C)C)cc1N2C
TGI (U251 CNS): > 100 µM
TGI (SF-295 CNS): > 100 µM
TGI (M14 melanoma): > 100 µM
TGI (HT29 colon): > 100 µM
TGI (786-0 renal): > 100 µM
TGI (MALME-3M melanoma): > 100 µM
TGI (TK-10 renal): > 100 µM
TGI (OVCAR-5 ovarian): > 100 µM
TGI (PC-3 prostate): > 100 µM
TGI (HCT-116 colon): > 100 µM
TGI (HS 578T breast): > 100 µM
TGI (A498 renal): > 100 µM
TGI (SK-MEL-2 melanoma): > 100 µM
TGI (COLO 205 colon): > 100 µM
TGI (EKVX NSCLC): > 100 µM
TGI (NCI-H522 lung): > 100 µM
TGI (RXF 393 renal): > 100 µM
TGI (HOP-92 NSCLC): > 100 µM
TGI (SK-MEL-5 melanoma): > 100 µM
TGI (MCF7 breast): > 100 µM
TGI (SF-268 CNS): > 100 µM
TGI (MOLT-4 leukemia): > 100 µM
TGI (KM12 colon): > 100 µM
TGI (SK-OV-3 ovarian): > 100 µM
TGI (NCI-H460 lung): > 100 µM
TGI (SNB-19 CNS): > 100 µM
TGI (CCRF-CEM leukemia): > 100 µM
TGI (OVCAR-3 ovarian): > 100 µM
TGI (NCI-H226 lung): > 100 µM
TGI (HOP-62 NSCLC): > 100 µM
TGI (SNB-75 CNS): > 100 µM
TGI (HCT-15 colon): > 100 µM
TGI (HCC-2998 colon): > 100 µM
TGI (SK-MEL-28 melanoma): > 100 µM
TGI (ACHN renal): > 100 µM
TGI (BT-549 breast): > 100 µM
TGI (OVCAR-4 ovarian): > 100 µM
TGI (T-47D breast): 85.9 µM
TGI (SN12C renal): > 100 µM
TGI (RPMI-8226 leukemia): > 100 µM
TGI (MDA-MB-435): > 100 µM
TGI (UO-31 renal): > 100 µM
TGI (IGROV1 ovarian): > 100 µM
TGI (HL-60(TB) leukemia): > 100 µM
TGI (A549 NSCLC): > 100 µM
TGI (MDA-MB-231 breast): > 100 µM
TGI (MDA-N): > 100 µM
TGI (OVCAR-8 ovarian): > 100 µM
TGI (SW-620 colon): > 100 µM
TGI (UACC-62 melanoma): > 100 µM
TGI (LOX IMVI melanoma): > 100 µM
TGI (DU-145 prostate): > 100 µM
TGI (NCI/ADR-RES ovarian): > 100 µM
TGI (CAKI-1 renal): > 100 µM
TGI (NCI-H23 lung): > 100 µM
TGI (SR leukemia): > 100 µM

O=c1cc(N=P(c2ccccc2)(c2ccccc2)c2ccccc2)n(-c2ccccc2)c(=O)n1-c1ccccc1
TGI (U251 CNS): 29.2 µM
TGI (SF-295 CNS): 85.8 µM
TGI (M14 melanoma): > 100 µM
TGI (HT29 colon): > 100 µM
TGI (786-0 renal): 25.2 µM
TGI (MALME-3M melanoma): 33.5 µM
TGI (TK-10 renal): > 100 µM
TGI (OVCAR-5 ovarian): > 100 µM
TGI (PC-3 prostate): 18.6 µM
TGI (HCT-116 colon): 42.5 µM
TGI (HS 578T breast): 58 µM
TGI (A498 renal): 21.1 µM
TGI (SK-MEL-2 melanoma): 58.1 µM
TGI (EKVX NSCLC): 49.8 µM
TGI (NCI-H522 lung): 37.3 µM
TGI (RXF 393 renal): 15.1 µM
TGI (HOP-92 NSCLC): 47.5 µM
TGI (SK-MEL-5 melanoma): 24.1 µM
TGI (MCF7 breast): 34.3 µM
TGI (SF-268 CNS): > 100 µM
TGI (MOLT-4 leukemia): 22 µM
TGI (K-562 leukemia): 23.9 µM
TGI (KM12 colon): > 100 µM
TGI (SK-OV-3 ovarian): 76.1 µM
TGI (NCI-H460 lung): 22 µM
TGI (UACC-257 melanoma): > 100 µM
TGI (SNB-19 CNS): 63.5 µM
TGI (CCRF-CEM leukemia): 82.5 µM
TGI (OVCAR-3 ovarian): 32.3 µM
TGI (NCI-H226 lung): 22.2 µM
TGI (HOP-62 NSCLC): 32.4 µM
TGI (SNB-75 CNS): 39.9 µM
TGI (HCT-15 colon): > 100 µM
TGI (HCC-2998 colon): 69.7 µM
TGI (SK-MEL-28 melanoma): > 100 µM
TGI (ACHN renal): 45.4 µM
TGI (BT-549 breast): 95.6 µM
TGI (OVCAR-4 ovarian): 45.9 µM
TGI (T-47D breast): 55.2 µM
TGI (SN12C renal): 75.3 µM
TGI (RPMI-8226 leukemia): 33 µM
TGI (MDA-MB-435): 57.2 µM
TGI (UO-31 renal): 34.6 µM
TGI (IGROV1 ovarian): 58.8 µM
TGI (HL-60(TB) leukemia): 44.6 µM
TGI (A549 NSCLC): 24.6 µM
TGI (MDA-MB-231 breast): 78.9 µM
TGI (MDA-N): 43.7 µM
TGI (OVCAR-8 ovarian): > 100 µM
TGI (SW-620 colon): > 100 µM
TGI (UACC-62 melanoma): 39.6 µM
TGI (LOX IMVI melanoma): 49.5 µM
TGI (DU-145 prostate): > 100 µM
TGI (NCI/ADR-RES ovarian): > 100 µM
TGI (CAKI-1 renal): > 100 µM
TGI (SF-539 CNS): 17.7 µM
TGI (NCI-H23 lung): 32 µM
TGI (SR leukemia): 24.6 µM

COCOc1ccc(Cn2c(=O)n(C)c(=O)c3c2ncn3C)cc1[N+](=O)[O-]
TGI (U251 CNS): > 100 µM
TGI (SF-295 CNS): > 100 µM
TGI (M14 melanoma): > 100 µM
TGI (HT29 colon): > 100 µM
TGI (786-0 renal): > 100 µM
TGI (MALME-3M melanoma): > 100 µM
TGI (TK-10 renal): > 100 µM
TGI (HCT-116 colon): > 100 µM
TGI (COLO 205 colon): > 100 µM
TGI (DMS 114 small cell lung): > 100 µM
TGI (EKVX NSCLC): > 100 µM
TGI (NCI-H522 lung): > 100 µM
TGI (RXF 393 renal): > 100 µM
TGI (SF-268 CNS): > 100 µM
TGI (MOLT-4 leukemia): > 100 µM
TGI (K-562 leukemia): > 100 µM
TGI (LXFL 529 NSCLC): > 100 µM
TGI (KM12 colon): > 100 µM
TGI (SK-OV-3 ovarian): > 100 µM
TGI (NCI-H460 lung): > 100 µM
TGI (UACC-257 melanoma): > 100 µM
TGI (SNB-19 CNS): > 100 µM
TGI (CCRF-CEM leukemia): > 100 µM
TGI (SNB-78 CNS): > 100 µM
TGI (OVCAR-3 ovarian): > 100 µM
TGI (NCI-H226 lung): > 100 µM
TGI (KM20L2 colon): > 100 µM
TGI (SNB-75 CNS): > 100 µM
TGI (HCT-15 colon): > 100 µM
TGI (HCC-2998 colon): > 100 µM
TGI (SK-MEL-28 melanoma): > 100 µM
TGI (ACHN renal): > 100 µM
TGI (DMS 273 small cell lung): > 100 µM
TGI (SN12C renal): > 100 µM
TGI (RPMI-8226 leukemia): > 100 µM
TGI (UO-31 renal): > 100 µM
TGI (IGROV1 ovarian): > 100 µM
TGI (HL-60(TB) leukemia): > 100 µM
TGI (A549 NSCLC): > 100 µM
TGI (OVCAR-8 ovarian): > 100 µM
TGI (SW-620 colon): > 100 µM
TGI (M19-MEL melanoma): > 100 µM
TGI (UACC-62 melanoma): > 100 µM
TGI (LOX IMVI melanoma): > 100 µM
TGI (DLD-1 colon): > 100 µM
TGI (SF-539 CNS): > 100 µM
TGI (NCI-H23 lung): > 100 µM
TGI (SR leukemia): > 100 µM
